Where “and” joins values, the source holds several entries; their conditions need not be identical. Equal values may be shown once.

One assay has as its system PARP.
Assay: not given
As to conditions: read-out: IC50 for inhibiting PARP; reported by Suto et al.; cited from earlier work.
Consider `O=C1NCCc2c(OCCCCN3CCCCC3)cccc21` [DPQ, 3,4-dihydro-5-[4-(1-piperidinyl)-butoxy]-1(2H)-isoquinolinone], for which the IC50 is 40 nM.

A further assay deals with T1, purified recombinant human PARP (Homo sapiens, UniProt P09874).
T1 construct: purchased Trevigan (Gaithersburg, Md.)
T1 sequence (P09874 whole entry): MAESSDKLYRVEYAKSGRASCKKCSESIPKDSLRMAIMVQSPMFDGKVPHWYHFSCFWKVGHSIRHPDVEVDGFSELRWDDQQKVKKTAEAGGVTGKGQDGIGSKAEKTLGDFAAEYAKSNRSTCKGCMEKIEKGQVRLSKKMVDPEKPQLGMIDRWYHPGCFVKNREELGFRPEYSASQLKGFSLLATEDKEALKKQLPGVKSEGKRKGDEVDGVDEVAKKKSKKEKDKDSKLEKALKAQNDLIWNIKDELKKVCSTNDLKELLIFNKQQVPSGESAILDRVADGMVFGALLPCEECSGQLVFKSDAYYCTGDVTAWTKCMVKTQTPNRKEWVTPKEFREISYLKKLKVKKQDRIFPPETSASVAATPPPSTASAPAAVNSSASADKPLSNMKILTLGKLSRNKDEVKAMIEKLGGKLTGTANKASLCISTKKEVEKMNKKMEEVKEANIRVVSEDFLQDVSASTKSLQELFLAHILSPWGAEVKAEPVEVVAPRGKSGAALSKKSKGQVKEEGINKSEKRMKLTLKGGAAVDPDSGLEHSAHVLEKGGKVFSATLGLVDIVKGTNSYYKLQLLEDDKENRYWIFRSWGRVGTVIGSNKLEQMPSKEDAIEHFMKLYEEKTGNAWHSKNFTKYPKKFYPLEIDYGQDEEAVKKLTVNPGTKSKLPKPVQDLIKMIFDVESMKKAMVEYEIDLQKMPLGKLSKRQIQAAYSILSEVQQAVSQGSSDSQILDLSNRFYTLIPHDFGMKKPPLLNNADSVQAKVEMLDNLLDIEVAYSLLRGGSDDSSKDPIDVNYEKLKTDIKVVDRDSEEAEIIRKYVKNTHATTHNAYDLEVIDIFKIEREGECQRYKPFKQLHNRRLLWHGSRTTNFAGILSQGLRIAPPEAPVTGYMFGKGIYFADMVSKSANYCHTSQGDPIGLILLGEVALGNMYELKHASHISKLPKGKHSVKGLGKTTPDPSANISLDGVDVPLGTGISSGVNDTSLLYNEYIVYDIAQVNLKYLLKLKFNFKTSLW
Put plainly: PARP enzyme assay (IC50), [3H]NAD incorporation. As to conditions: approximate values, read-out: Inhibition IC50. It counts as biochemical. As to the method: The reaction is initiated by incubating the mixture at 25° C. After 15 minutes of incubation, the reaction is terminated by adding 500 microliters of ice cold 20% (w/v) trichloroacetic acid. The precipitate formed is transferred onto a glass fiber filter (Packard Unifilter-GF/B) and washed three times with ethanol. After the filter is dried, the radioactivity is determined by scintillation counting.
Using the PARP assay described above, approximate IC50 (μM) values were obtained as shown in the following Table III, which also include specific embodiments of the compounds of the present invention: […]
In the case of `O=c1[nH]c2cccc3c2c2c(cccc12)C3` [Compound 1, 5,9-dihydro-4[H]cyclopenta[lmn]phenathridin-5-one], the concentration for half-maximal inhibition (IC50) was 100 nM. Consider `O=c1[nH]c2ccc(S(=O)(=O)O)c3c2c2c(cccc12)C3` [Compound 2, 5,9-Dihydro-5-oxo-4[H]cyclopenta[lmn]phenathridine-1-sulfonic acid], for which the half-inhibitory concentration (IC50) was 110 nM. `O=c1[nH]c2ccc([N+](=O)[O-])c3c2c2c(cccc12)C3` [Compound 4, 5,9-dihydro-1-nitro-4[H]cyclopenta[lmn]phenathridin-5-one]: the IC50 is 111 nM.

For the molecule `Nc1ccc2[nH]c(=O)c3cccc4c3c2c1C4` [Compound 5, 5,9-dihydro-1-amino-4[H]cyclopenta[lmn]phenathridin-5-one], the half-inhibitory concentration (IC50) was 60 nM. The same measure, in the same setting: for `O=c1[nH]c2ccc(S(=O)(=O)N3CCN(c4ccccn4)CC3)c3c2c2c(cccc12)C3` [Compound 6] the value was 380 nM. Still for that read-out and setting: under `O=c1[nH]c2ccc(S(=O)(=O)NCCN3CCOCC3)c3c2c2c(cccc12)C3` [Compound 8, 5,9-Dihydro-N-[2-(4-morpholinyl)ethyl]-1-oxo-[H]cyclopenta[lmn]phenathridine-1-sulfonamide] stands 70 nM.

For the molecule `CN1CCN(S(=O)(=O)c2ccc3[nH]c(=O)c4cccc5c4c3c2C5)CC1` [Compound 9, 5,9-Dihydro-1-[(4-methyl-1-piperazinyl)sulfonyl]-4[H]cyclopenta[lmn]phenathridin-5-one], the IC50 came out at 130 nM. The same measure, in the same setting: under `O=c1[nH]c2ccc(S(=O)(=O)NCCc3ccncc3)c3c2c2c(cccc12)C3` [Compound 10] stands 70 nM; under `O=c1[nH]c2ccc(S(=O)(=O)NCCN3CCCCC3)c3c2c2c(cccc12)C3` [Compound 11, 5,9-Dihydro-5-oxo-N-[2-(1-piperidinyl)ethyl]-4[H]cyclopenta[lmn]phenathridine-1-sulfonamide], 50 nM; under `O=c1[nH]c2ccc(S(=O)(=O)N3CCOCC3)c3c2c2c(cccc12)C3` [Compound 12, 5,9-Dihydro-1-(4-morpholinylsulfonyl)-4[H]cyclopenta[lmn]phenathridin-5-one], 40 nM. Regarding `CC(=O)Nc1ccc2[nH]c(=O)c3cccc4c3c2c1C4` [Compound 13, 5,9-Dihydro-5-oxo-4[H]cyclopenta[mn]phenathridin-1-yl acetamide], the IC50 is 50 nM. Still for that read-out and setting: under `O=C(Nc1ccc2[nH]c(=O)c3cccc4c3c2c1C4)c1cccc(F)c1` [Compound 14, N-(5,9-Dihydro-5-oxo-4[H]cyclopenta[lmn]phenathridin-1-yl)-3-fluorbenzamide] stands 80 nM; under `O=c1[nH]c2cccc3c(=O)c4cccc1c4c23` [Compound 16, 9-oxo-5,9-dihydro-4[H]cyclopenta[lmn]phenathridin-5-one], 70 nM; under `O=c1[nH]c2cc(F)cc3c(=O)c4cc(F)cc1c4c23` [Compound 17], 30 nM. For the molecule `O=c1[nH]c2cccc3c2c2c(cccc12)C3O` (centres unmarked) [Compound 18], the IC50 worked out at 120 nM. Still for that read-out and setting: under `O=c1[nH]c2cc(F)cc3c2c2c(cc(F)cc12)C3O` (centres unmarked) [Compound 19] stands 100 nM; under `CC(=O)OC1c2cccc3[nH]c(=O)c4cccc1c4c23` (centres unmarked) [Compound 20], 810 nM. For `CC(=O)OC1c2cc(F)cc3[nH]c(=O)c4cc(F)cc1c4c23` (centres unmarked) [Compound 21, 5,9-Dihydro-2,7-difluoro-5-oxo-4[H]cyclopenta[lmn]phenathridin-9-yl acetate], the concentration for half-maximal inhibition (IC50) was 360 nM. Still for that read-out and setting: for `O=c1[nH]c2cc(Cl)cc3[nH]c4cc(Cl)cc1c4c23` [Compound 22, 2,7,-Dichloro-5,9-dihydro-4[H]pyrrol[2,3,4,5-lmn]phenathridin-5-one] the value was 20 nM.

On to “N-(5,9-Dihydro-5-oxo-4[H]cyclopenta[lmn]phenathridin-1-yl)-4-fluorbenzamide [Compound 15]”, for which the half-inhibitory concentration (IC50) was found to be 70 nM.

The next assay relates to ischemia and reperfusion of the heart.
Assay: not given
The settings on record: rabbit; single injection 1 mg/kg; cited from earlier work.
Take `Oc1cccc2c(O)nccc12` [1,5-dihydroxyisoquinoline]: the “reduction in infarct size” value was 38-48%.

The assay is the same for the next values; noted with them: rabbit; single injection 10 mg/kg, one minute before occlusion or before reperfusion; cited from earlier work.
Regarding `NC(=O)c1cccc(N)c1` [3-amino-benzamide], the “reduction in infarct size in the heart” value is given as 32-42%.

The next assay deals with MSU crystal-induced neutrophil recruitment. The assay can be described thus: Gout model: MSU crystal-induced neutrophil recruitment (peritonitis). In kind it is in vivo, mouse. The settings on record: 45 mg/kg i.p. 1 h prior to 3 mg MSU crystals; 6 h; group C, n=8; vehicle group B 6.30 ± 0.33. The procedure:
Male outbread Swiss albino mice (20-22 g body weight) were purchased from Banton and Kingsman (T.O. strain; Hull, Humberside) and maintained on a standard chow pellet diet with tap water ad libitum and a 12:00 h light/dark cycle. All animals were housed for 1 week prior to experimentation to allow body weight to reach 28-30 g.
1,11b-dihydrobenzopyrano[4,3,2-de ]isoquinolin-1-one was dissolved in 100% DMSO at room temperature at a concentration of 45 mg in 2 ml. The compound was then injected into the peritoneal cavity, so as each mouse received a single dose corresponding to 45 mg/2 ml/kg (e.g. 60 μl for a mouse of 30 g). Control mice received DMSO at 2 ml/kg i.p. A third group of mice which were left untreated were added to control for potential effects of the vehicle. The study involved therefore, the following three groups: group A, untreated mice, n=6, group B, DMSO-treated mice, n=8, and group C, mice treated with 1,11b-dihydrobenzopyrano[4,3,2-de ]isoquinolin-1-one, n=8.
MSU crystal-induced neutrophil recruitment was tested as follows. In all cases, mice were treated 1 h after the treatment noted above, with MSU crystals. A homogenous suspension of MSU crystals was obtained by a 30 min rotation. Peritonitis was induced by injection of 3 mg MSU crystals in 0.5 ml PBS (0.1 M, pH 7.4), and the recruitment of neutrophils into the cavity evaluated at the 6 h time point (Getting, et al., 1997, J. Pharmacol. Exp. Ther. 283: 123-130). Animals were then euthanised by CO2 exposure and the peritoneal cavity washed with 3 ml of PBS supplemented with 3 mM EDTA and 25 U/ml heparin.
An aliquot (100 μl) of the lavage fluid was then diluted 1:10 in Turk's solution (0.01% crystal violet in 3% acetic acid). The samples were then vortexed and 10 μl of the stained cell solution were placed in a Neubauer haematocymometer and neutrophils numbers counted using a light microscope (Olympus B061). […]
Data are shown for single mice, and also shown as mean±S.E. of (n) mice per group. Statistical differences were determined by ANOVA, plus Bonferroni test. […]
For `O=C1N=Cc2cccc3c2C1c1ccccc1O3` (centres unmarked) [1,11b-dihydrobenzopyrano[4,3,2-de]isoquinolin-1-one], the “Neutrophils (mean ± S.E.)” value is listed as 2.85 ± 0.34 (8)* 10^6 per mouse.

The same assay, now with this note: 45 mg/kg i.p. 1 h prior to 3 mg MSU crystals; peritoneal lavage at 6 h; group C, one value per mouse.
Take `O=C1N=Cc2cccc3c2C1c1ccccc1O3` (centres unmarked) [1,11b-dihydrobenzopyrano[4,3,2-de]isoquinolin-1-one]: the “Neutrophil Numbers (single mice)” value was 2.4 10^6 per mouse (2×) and 3.0 10^6 per mouse (2×) and 2.7 10^6 per mouse and 2.1 10^6 per mouse (2×) and 5.1 10^6 per mouse.

Staying with this assay, now noted: 45 mg/kg i.p.; 6 h after MSU crystals.
Consider `O=C1N=Cc2cccc3c2C1c1ccccc1O3` (centres unmarked) [1,11b-dihydrobenzopyrano[4,3,2-de]isoquinolin-1-one], for which the “inhibition of cell influx vs. the vehicle group” value is listed as 55%.
